In ChEMBL document CHEMBL1131743, “Structure-activity relationship for a series of 2-substituted 1,2,3,4-tetrahydro-9H-pyrido[3,4-b]indoles: potent subtype-selective inhibitors of N-methyl-D-aspartate (NMDA) receptors” (Bioorg Med Chem Lett, 1999):

What was measured:
[1] = molecular target: Glutamate NMDA receptor; Grin1/Grin2b (Rattus norvegicus, UniProt P35439+Q00960); test: Antagonist activity against rat 1A/2B subtype of N-methyl-D-aspartate (NMDA) receptor in xenopus oocytes.; format: functional, cell-based, Oocyte
Sequence of Glutamate NMDA receptor; Grin1/Grin2b (Q00960 whole entry, other chains not shown): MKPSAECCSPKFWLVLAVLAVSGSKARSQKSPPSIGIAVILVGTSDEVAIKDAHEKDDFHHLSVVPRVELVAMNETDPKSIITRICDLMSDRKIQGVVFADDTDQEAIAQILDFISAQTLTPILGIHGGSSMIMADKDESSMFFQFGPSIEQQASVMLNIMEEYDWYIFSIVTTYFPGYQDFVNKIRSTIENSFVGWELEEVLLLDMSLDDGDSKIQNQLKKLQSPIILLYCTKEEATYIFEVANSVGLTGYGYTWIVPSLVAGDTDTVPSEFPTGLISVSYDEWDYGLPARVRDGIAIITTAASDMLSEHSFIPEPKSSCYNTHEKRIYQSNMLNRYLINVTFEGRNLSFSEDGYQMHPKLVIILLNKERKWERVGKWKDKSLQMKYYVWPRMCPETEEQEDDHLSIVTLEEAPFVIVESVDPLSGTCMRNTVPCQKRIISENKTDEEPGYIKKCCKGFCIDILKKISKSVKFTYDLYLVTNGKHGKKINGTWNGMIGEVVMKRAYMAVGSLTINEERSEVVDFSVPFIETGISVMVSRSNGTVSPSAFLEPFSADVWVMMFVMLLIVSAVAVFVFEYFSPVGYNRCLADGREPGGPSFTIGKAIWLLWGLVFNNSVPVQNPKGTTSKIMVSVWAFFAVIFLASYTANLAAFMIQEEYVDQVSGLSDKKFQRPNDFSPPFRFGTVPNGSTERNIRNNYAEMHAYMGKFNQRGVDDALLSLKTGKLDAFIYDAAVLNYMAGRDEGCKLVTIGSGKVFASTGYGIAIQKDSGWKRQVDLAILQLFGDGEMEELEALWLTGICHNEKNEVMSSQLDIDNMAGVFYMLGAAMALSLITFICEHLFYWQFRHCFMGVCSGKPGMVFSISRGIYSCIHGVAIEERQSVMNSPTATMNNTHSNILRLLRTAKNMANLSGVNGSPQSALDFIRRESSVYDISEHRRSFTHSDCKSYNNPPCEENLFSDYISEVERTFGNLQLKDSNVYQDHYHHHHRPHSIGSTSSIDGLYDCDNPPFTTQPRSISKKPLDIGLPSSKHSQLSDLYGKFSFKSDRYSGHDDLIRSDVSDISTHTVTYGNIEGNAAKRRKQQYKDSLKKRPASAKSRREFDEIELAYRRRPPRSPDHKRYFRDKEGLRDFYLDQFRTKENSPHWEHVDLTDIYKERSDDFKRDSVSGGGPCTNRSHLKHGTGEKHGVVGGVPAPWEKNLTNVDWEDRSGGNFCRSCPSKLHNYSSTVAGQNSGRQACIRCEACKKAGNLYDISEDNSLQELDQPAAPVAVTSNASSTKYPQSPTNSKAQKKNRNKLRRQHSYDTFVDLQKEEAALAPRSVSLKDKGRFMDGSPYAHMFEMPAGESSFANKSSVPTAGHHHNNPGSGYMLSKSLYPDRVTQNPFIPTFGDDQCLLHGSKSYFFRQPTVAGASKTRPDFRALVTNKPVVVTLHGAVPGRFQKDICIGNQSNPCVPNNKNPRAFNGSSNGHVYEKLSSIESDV

[2] = Antagonist activity against rat 1A/2C subtype of N-methyl-D-aspartate (NMDA) receptor was determined by electrical assay in xenopus oocytes.; format: functional, cell-based; conditions: Oocyte
[3] = Antagonist activity against rat 1A/2A subtype of N-methyl-D-aspartate (NMDA) receptor was determined by electrical assay in xenopus oocytes.; format: functional, cell-based; conditions: Oocyte

| SMILES | IC50 [1] [nM] | IC50 [2] [µM] | IC50 [3] [µM] |
| --- | --- | --- | --- |
| Oc1ccc(CCCCN2CCc3c([nH]c4ccccc34)C2)cc1 | 560 | 150 | 58 |
| c1ccc(CCCCN2CCc3c([nH]c4ccccc34)C2)cc1 | 3300 | 65 | 68 |
| Oc1ccc(CCN2CCc3c([nH]c4ccccc34)C2)cc1 | 3800 | 140 | 74 |
| COc1ccc2[nH]c3c(c2c1)CCN(CCCCc1ccccc1)C3 | 14000 | 132 | 110 |
| Oc1ccc2[nH]c3c(c2c1)CCN(CCCCc1ccccc1)C3 | 140 | 180 | 97 |

Stronger by IC50 [1], values ahead:

| IC50 [1] [nM] | IC50 [2] [µM] | IC50 [3] [µM] | SMILES |
| --- | --- | --- | --- |
| 87 | 170 | 42 | Oc1ccc(CCCN2CCc3c([nH]c4ccccc34)C2)cc1 |
| 50 | 67 | 57 | Oc1ccc2c3c([nH]c2c1)CN(CCCCc1ccccc1)CC3 |
| 20 | – | – | Oc1ccc(CCCNCCCCc2ccccc2)cc1 |
